# Read-outs that look alike come from different tables or passages of the source.
# Columns and labels:
# [1] = tested on: phospho-ERK in A375 V600E cells; experiment: SureFire phospho-ERK AlphaScreen cellular assay; assay type: cell-based; conditions: Homo sapiens, A-375, 1 hour treatment
# Method: (§1) A375 V600E, WM-266-4 V600E, HCT-116 K-Ras mutant B-Raf wild type are from ATCC. The cellular activities are assessed by an ELISA assay commercially available from TGR Biosciences to measure the phospho-ERK levels of each cell type.
# (§2) The cells in each well are then lysed with 50 μl lysis buffer from TGR Biosciences. The phospho-ERK activities are determined with SureFire phospho-ERK AlphaScreen assay kit from TGR Biosciences per manufacturer's instruction.
# [2] = tested on: phospho-ERK in A375 V600E-PLX4032 resistant cells (A375-res); experiment: SureFire phospho-ERK AlphaScreen cellular assay; assay type: cell-based; conditions: Homo sapiens, A-375, 1 hour treatment
# Method: as §1, §2
# [3] = tested on: phospho-ERK in HCT-116 (K-Ras mutant B-Raf wild type) cells; experiment: SureFire phospho-ERK AlphaScreen cellular assay; assay type: cell-based; conditions: Homo sapiens, 1 hour treatment
# Method: as §1, §2
# [4] = tested on: phospho-ERK in WM-266-4 V600E cells; experiment: SureFire phospho-ERK AlphaScreen cellular assay; assay type: cell-based; conditions: Homo sapiens, 1 hour treatment
# Method: as §1, §2
# HepG2 = experiment: CellTiter-Glo proliferation and viability assay; assay type: cell-based; conditions: Homo sapiens
# Calu-6 = experiment: CellTiter-Glo proliferation and viability assay; assay type: cell-based; conditions: Homo sapiens
# BxPC-3 = experiment: CellTiter-Glo proliferation and viability assay; assay type: cell-based; conditions: Homo sapiens
# TALL-1 = experiment: CellTiter-Glo proliferation and viability assay; assay type: cell-based; conditions: Homo sapiens, read-out: Abs IC50
# A2780 = experiment: CellTiter-Glo proliferation and viability assay; assay type: cell-based; conditions: Homo sapiens
# NCI-H1975 = experiment: CellTiter-Glo proliferation and viability assay; assay type: cell-based; conditions: Homo sapiens
# Hs746T = experiment: CellTiter-Glo proliferation and viability assay; assay type: cell-based; conditions: Homo sapiens
# AGS = experiment: CellTiter-Glo proliferation and viability assay; assay type: cell-based; conditions: Homo sapiens
# AsPC-1 = experiment: CellTiter-Glo proliferation and viability assay; assay type: cell-based; conditions: Homo sapiens
# LN 229 = experiment: CellTiter-Glo proliferation and viability assay; assay type: cell-based; conditions: Homo sapiens
# DU-145 = experiment: CellTiter-Glo proliferation and viability assay; assay type: cell-based; conditions: Homo sapiens
# MKN45 = experiment: CellTiter-Glo proliferation and viability assay; assay type: cell-based; conditions: Homo sapiens
# NCI-H838 = experiment: CellTiter-Glo proliferation and viability assay; assay type: cell-based; conditions: Homo sapiens
# NCI-H2170 = experiment: CellTiter-Glo proliferation and viability assay; assay type: cell-based; conditions: Homo sapiens
# HCC70 = experiment: CellTiter-Glo proliferation and viability assay; assay type: cell-based; conditions: Homo sapiens
# NCI-H1155 = experiment: CellTiter-Glo proliferation and viability assay; assay type: cell-based; conditions: Homo sapiens
# NCI-H2228 = experiment: CellTiter-Glo proliferation and viability assay; assay type: cell-based; conditions: Homo sapiens
# NCI-H661 = experiment: CellTiter-Glo proliferation and viability assay; assay type: cell-based; conditions: Homo sapiens
# PC-3 = experiment: CellTiter-Glo proliferation and viability assay; assay type: cell-based; conditions: Homo sapiens
# PLC-PRF-5 = experiment: CellTiter-Glo proliferation and viability assay; assay type: cell-based; conditions: Homo sapiens
# [5] = tested on: hematologic cancer cell lines with N-Ras mutations B-Raf wild type; experiment: CellTiter-Glo proliferation and viability assay, N-Ras mutant hematologic panel; assay type: cell-based; conditions: Homo sapiens; 7 of the 9 hematologic cancer cell lines with N-Ras mutations B-Raf wild type
# Method: Additional N-RAS mutant B-Raf wild type hematologic cancer cell lines were tested for sensitivity to Example 1. N-Ras activating mutations are common in hematologic cancers occurring at a frequency of 10-30%. Two B-Raf V600E mutant melanoma cell lines (A-375 and SK-Mel-28), nine N-Ras mutant hematologic cell lines (HL-60, THP-1, TALL-1, C8166, H9, IM-9, GA-10 clone 4, P31-FUJ, MOLT-4) and seven N-Ras wild-type cell lines (LOUCY, HEL, U266, EB2, P30-OHK, NOMO-1, CCRF-CEM) were tested, and the IC50 data reported.
# [6] = tested on: phospho-MEK and phospho-ERK in A375 xenograft; experiment: A375 xenograft single dose pharmacodynamic study; assay type: in vivo, rat; conditions: two hours post dose, Western Blot
# Method: Briefly, 10×10^6 cells (A375) or 5×10^6 cells (HCT-116) in a 1:1 medium and matrigel mix (0.2 mL total volume) are implanted by subcutaneous injection in the hind leg of nude female rats (NIH model No. NIHRNU-M from Taconic). A total of 8 rats in each group are used for the efficacy study, and a total of 3-4 rats in each group are used for a pharmacodynamic study. The Eli Lilly and Company Animal Care and Use Committee approved all the experimental protocols. […] Tumor growth and body weight are monitored over time to evaluate activity and signs of toxicity. Bidimensional measurements of tumors are performed twice a week and tumor volumes are calculated based on mid-axis length and mid-axis width. Tumor volume data are transformed to a log scale to equalize variance across time and treatment groups. The log volume data are analyzed with a two-way repeated measures analysis of variance by time and treatment using the MIXED® procedures in SAS® software (version 8.2). The correlation model for the repeated measures is spatial power. Treated groups are compared to the control group at each time point. The MIXED® procedure is also used separately for each treatment group to calculate adjusted means and standard errors at each time point. […]
# HCT-116 = experiment: CellTiter-Glo proliferation and viability assay; conditions: Homo sapiens
smiles,measurement,setting,value
"CNc1ncc2cc(-c3cc(NC(=O)NCCC(C)(C)C)c(F)cc3C)c(C)nc2n1 [Example 1, 1-(3,3-Dimethylbutyl)-3-(2-fluoro-4-methyl-5-(7-methyl-2-(methylamino)pyrido[2,3-d]pyrimidin-6-yl)phenyl)urea]",IC50,[1],3 nM
same,IC50,[2],9.7 nM
same,IC50,[3],133 nM
same,IC50,[4],4.9 nM
same,IC50,HepG2; read-out: Abs IC50,0.06 nM
same,IC50,HepG2; read-out: Rel IC50,0.03 nM
same,IC50,Calu-6; read-out: Abs IC50,0.24 nM
same,IC50,Calu-6; read-out: Rel IC50,0.22 nM
same,IC50,BxPC-3; read-out: Abs IC50,0.39 nM
same,IC50,BxPC-3; read-out: Rel IC50,0.23 nM
same,IC50,TALL-1,0.75 nM
same,IC50,A2780; read-out: Abs IC50,0.81 nM
same,IC50,A2780; read-out: Rel IC50,0.2 nM
same,IC50,NCI-H1975; read-out: Abs IC50,0.93 nM
same,IC50,NCI-H1975; read-out: Rel IC50,0.69 nM
same,IC50,Hs746T; read-out: Abs IC50,0.98 nM
same,IC50,Hs746T; read-out: Rel IC50,0.76 nM
same,IC50,AGS; read-out: Abs IC50,1.14 nM
same,IC50,AGS; read-out: Rel IC50,0.34 nM
same,IC50,"AsPC-1; ASPC1, read-out: Abs IC50",1.22 nM
same,IC50,"AsPC-1; ASPC1, read-out: Rel IC50",0.38 nM
same,IC50,LN 229; read-out: Abs IC50,1.22 nM
same,IC50,LN 229; read-out: Rel IC50,1.08 nM
same,IC50,DU-145; read-out: Abs IC50,5.18 nM
same,IC50,DU-145; read-out: Rel IC50,0.66 nM
same,IC50,"MKN45; MKN-45, read-out: Abs IC50",5.72 nM
same,IC50,"MKN45; MKN-45, read-out: Rel IC50",0.87 nM
same,IC50,NCI-H838; read-out: Abs IC50,13.4 nM
same,IC50,NCI-H838; read-out: Rel IC50,6.97 nM
same,IC50,NCI-H2170; read-out: Abs IC50,15.1 nM
same,IC50,NCI-H2170; read-out: Rel IC50,19.9 nM
same,IC50,HCC70; read-out: Abs IC50,> 20 nM
same,IC50,HCC70; read-out: Rel IC50,> 20 nM
same,IC50,NCI-H1155; read-out: Abs IC50,> 20 nM
same,IC50,NCI-H1155; read-out: Rel IC50,0.47 nM
same,IC50,NCI-H2228; read-out: Abs IC50,> 20 nM
same,IC50,NCI-H2228; read-out: Rel IC50,1.18 nM
same,IC50,NCI-H661; read-out: Abs IC50,> 20 nM
same,IC50,NCI-H661; read-out: Rel IC50,12.6 nM
same,IC50,PC-3; read-out: Abs IC50,> 20 nM
same,IC50,PC-3; read-out: Rel IC50,> 20 nM
same,IC50,PLC-PRF-5; read-out: Abs IC50,> 20 nM
same,IC50,PLC-PRF-5; read-out: Rel IC50,11.7 nM
same,IC50,[5],< 1000 nM
same,"phospho-MEK and phospho-ERK activities, PD effect",[6]; single dose 25 mg/kg,almost completely eliminated
same,"phospho-MEK and phospho-ERK, PD effect",[6]; single dose 3.125 to 50 mg/kg,inhibition was observed in all dose groups
same,IC50,"HCT-116; HCT-116, read-out: Abs IC50",0.72 nM
same,IC50,"HCT-116; HCT-116, read-out: proliferation and viability IC50",178 nM
